The values below come from patent US20220331415A1, “IMMUNOACTIVE MICROPARTICLES AND USES THEREOF” (The Regents of the University of California, priority 2019, published 2022).

One data set addresses TGF-β receptor. Particulars: TGF-β inhibitors; cited from earlier work.
Data set [1] deals with Treg formation (Foxp3+ T cells). In words: Inhibition of Treg formation: Foxp3 expression in naïve T cells co-cultured with microparticles, flow cytometry. The format is cell-based. Particulars: same concentration of TGF-β inhibitors, galunisertib compared with SB505124, after 4 days. The source says:
FIG. 16 further describes TGF-β inhibitors galunisertib (LY2157299) and SB505124 (top). […] Naïve T cells were co-cultured with microparticles and flow cytometry is being used after 4 days to evaluate the intracellular Foxp3 expression.
Thus, in one embodiment, an inhibitor or blocker of TGF-β is included or incorporated into the microparticles of the invention. A TGF-β inhibitor (TGF-βi) such as a TGF-β receptor inhibitor may be used. Non-limiting examples include galinusertib (LY2157299) or SB505124. […] This TGFβ inhibitor used for further studies as described in FIGS. 16-20.
To efficiently stimulate the proliferation of cytotoxic T cells, the microparticles of the invention should suppress formation of regulatory T cells (Tregs) from CD4+ cells attracted to the microparticles. Sustained presence of TGF-β inhibitors can suppress Tregs formation. FIG. 15 and FIG. 16 depict two TGF-β inhibitors used here to show the suppression effect. […] Incorporation of β-cyclodextrin was used to increase the affinity and loading of Galunisertib to microparticles (FIG. 17). β-cyclodextrin was conjugated to Alginate or Alginate-Heparin polymers.
(In general: In flow cytometry, cells or beads pass a laser one at a time.)

The conditions of data set [2]: compared to IL-2, cited from earlier work.

As to `Cc1cccc(-c2nn3c(c2-c2ccnc4ccc(C(N)=O)cc24)CCC3)n1` [galunisertib], on TGF-β receptor, the IC50 (in general, the point on the concentration scale where inhibition reaches its midpoint) was 56 nM. Moreover, the “Treg suppression (Foxp3 expression, number of Foxp3+ cells)” value is listed as “stronger Treg suppression” in data set [1] and “higher degree of Tregs suppression” in data set [1] (listed as Galunisertib).

As for `Cc1cccc(-c2[nH]c(C(C)(C)C)nc2-c2ccc3c(c2)OCO3)n1` [SB505124], the IC50 on TGF-β receptor is 129 nM.

B1: IL-2 superkine: artificial variant of IL-2 containing mutations L80F/R81D/L85V/I86V/I92F (SEQ ID NO: 3) (protein)
chain: MGEFAPTSSSTKKTQLQLEHLLLDLQMILNGINNYKNPKLTRMLTFKFYMPKKATELKHLQCLEEELKPLEEVLNLAQSKNFHFDPRDVVSNINVFVLELKGSETTFMCEYADETATIVEFLNRWITFCQSIISTLTH
B1: the “expansion of cytotoxic T cells” value in data set [2] was “superior expansion”. In addition, the toxicity entry in data set [2] (lower Treg expansion, reduced pulmonary edema) is “proportionally less toxicity”. For the same molecule, the antitumor responses entry in data set [2] (in vivo) is on record as “improved antitumor responses”.
